Earlier results, collected in US20030191121A1, “Piperazine carboxamide intermediates of HIV protease inhibitors and processes for their preparation” (priority 2001, published 2003).

System: HIV
Conditions: HIV-infected patients, in combination with nucleoside reverse transcriptase inhibitors

CC(C)(C)NC(=O)[C@@H]1CN(Cc2cccnc2)CCN1C[C@@H](O)C[C@@H](Cc1ccccc1)C(=O)N[C@H]1c2ccccc2C[C@H]1O [Indinavir, indinavir]
reducing HIV viral loads and increasing CD4 cell counts: highly effective
